{"source": "paper PMC10105652", "about": "“Resistance to ceftazidime-avibactam in a KPC-2–producing Klebsiella pneumoniae caused by the extended-spectrum beta-lactamase VEB-25” (European Journal of Clinical Microbiology & Infectious …, 2023)", "molecular_target": "T1, VEB-1 (Escherichia coli, UniProt Q7BVU7)", "T1 construct": "gene blaVEB; natural allele amplified and cloned in pCR-Blunt II-TOPO, E. coli Top10; crude extract", "experiment": "cephalothin hydrolysis, UV […] nm, crude extract", "type": "biochemical", "details": "100 µM cephalothin, 100 mM sodium phosphate pH 7.0, 3 min preincubation", "note": "Read-outs that look alike come from different tables or passages of the source.", "data": [{"smiles": "NC(=O)[C@@H]1CC[C@@H]2CN1C(=O)N2OS(=O)(=O)O", "note": "[avibactam]", "values": [{"measurement": "IC50", "setting": "read-out: AVI", "result": 900, "unit": "nM"}]}, {"smiles": "O=C(O)[C@H]1/C(=C/CO)O[C@@H]2CC(=O)N21", "note": "[clavulanic acid]", "values": [{"measurement": "IC50", "setting": "read-out: CLA", "result": 50, "unit": "nM"}]}, {"smiles": "O=C(NC1CCNCC1)[C@@H]1CC[C@@H]2CN1C(=O)N2OS(=O)(=O)O", "note": "[relebactam]", "values": [{"measurement": "IC50", "setting": "read-out: REL", "result": 2400, "unit": "nM"}]}, {"smiles": "C[C@]1(Cn2ccnn2)[C@H](C(=O)O)N2C(=O)C[C@H]2S1(=O)=O", "note": "[tazobactam]", "values": [{"measurement": "IC50", "setting": "read-out: CLA", "result": 50, "unit": "nM"}]}, {"smiles": "O=C(O)C[C@@H]1CC[C@H](NC(=O)Cc2cccs2)B(O)O1", "note": "[vaborbactam]", "values": [{"measurement": "IC50", "setting": "read-out: VAB", "result": 1100, "unit": "nM"}]}]}
